# Patent US8993574B2, “Pyrrole antifungal agents” (F2G Ltd, priority 2008, dated 2015)
# What was measured:
# Format in all cases: cell-based
# [1] = system: Aspergillus fumigatus AF293; test: MIC, YAG medium; conditions: 24 h at 35° C, MIC banded into grades; for MIC: Aspergillus fumigatus, read-out: MIC grade, A. fumigatus
# How it was run: (§1)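 Spores harvested from 5-day Sabouraud agar cultures were inoculated at 1−2×10^4 cfu/mL into YAG medium (1% glucose, 1% ammonium chloride, 0.5% yeast extract) over doubling drug dilutions spanning 50-0.05 mg/L, or 0.5-0.0005 mg/L on repeat. After 24 h at 35° C, OD485 was read. MIC is the lowest concentration inhibiting growth >70% versus drug-free control, in mg/L.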
# Aspergillus terreus AT4 [2] = test: MIC, YAG medium; conditions: 24 h at 35° C, MIC banded into grades; for MIC: Aspergillus terreus, read-out: MIC grade, A. terreus
# How it was run: as §1
# [3] = system: Aspergillus fumigatus AF210; test: MIC, YAG medium; conditions: 24 h at 35° C, MIC banded into grades; for MIC: Aspergillus fumigatus, read-out: MIC grade, A. fumigatus 210
# How it was run: as §1
# Aspergillus flavus [4] = test: MIC, YAG medium; conditions: 24 h at 35° C, MIC banded into grades; for MIC: Aspergillus flavus, 24 h, read-out: MIC grade, A. flavus
# How it was run: as §1
# Aspergillus niger [5] = test: MIC, YAG medium; conditions: 24 h at 35° C, MIC banded into grades; for MIC: Aspergillus niger, read-out: MIC grade, A. niger
# How it was run: as §1
# Aspergillus terreus AT49 [6] = test: MIC, YAG medium; conditions: 24 h at 35° C, MIC banded into grades; for MIC: Aspergillus terreus, read-out: MIC grade, A. terreus 49
# How it was run: as §1
# [7] = system: Aspergillus fumigatus AF293; test: MIC, RPMI medium; conditions: for MIC: Aspergillus fumigatus, AF293, MIC banded into grades, read-out: MIC grade, A. fumigatus; for MIC grade, A. fumigatus: MIC banded into grades
# How it was run: (§2)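 Broth microdilution in RPMI medium with 2% glucose and 0.135 M MOPS (pH 7.0); compounds as doubling dilutions over 50-0.05 mg/L, inoculum 1−2×10^4 cfu/mL. Plates incubated 24-48 h at 35° C; OD 485 nm read, MIC being lowest concentration giving >80% growth inhibition versus drug-free control.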
# Aspergillus terreus AT4 [8] = test: MIC, RPMI medium; conditions: for MIC: Aspergillus terreus, AT4, MIC banded into grades, read-out: MIC grade, A. terreus; for MIC grade, A. terreus: MIC banded into grades
# How it was run: as §2
# [9] = system: Aspergillus fumigatus AF210; test: MIC, RPMI medium; conditions: for MIC: Aspergillus fumigatus, AF210, MIC banded into grades, read-out: MIC grade, A. fumigatus 210; for MIC grade, A. fumigatus 210: MIC banded into grades
# How it was run: as §2
# Aspergillus flavus [10] = test: MIC, RPMI medium; conditions: MIC banded into grades; for MIC: Aspergillus flavus, read-out: MIC grade, A. flavus
# How it was run: as §2
# Aspergillus niger [11] = test: MIC, RPMI medium; conditions: MIC banded into grades; for MIC: Aspergillus niger, read-out: MIC grade, A. niger
# How it was run: as §2
# Aspergillus terreus AT49 [12] = test: MIC, RPMI medium; conditions: for MIC: Aspergillus terreus, AT49, MIC banded into grades, read-out: MIC grade, A. terreus 49; for MIC grade, A. terreus 49: MIC banded into grades
# How it was run: as §2
Compound,MIC [1] [µg/mL],MIC (Aspergillus terreus AT4 [2]) [µg/mL],MIC [3] [µg/mL],MIC (Aspergillus flavus [4]) [µg/mL],MIC (Aspergillus niger [5]) [µg/mL],MIC (Aspergillus terreus AT49 [6]) [µg/mL],MIC [7] [µg/mL],MIC (Aspergillus terreus AT4 [8]) [µg/mL],MIC [9] [µg/mL],MIC (Aspergillus flavus [10]) [µg/mL],MIC (Aspergillus niger [11]) [µg/mL],MIC (Aspergillus terreus AT49 [12]) [µg/mL],also measured
"Cc1cc(-c2ccccc2)c(C(=O)C(=O)Nc2ccc(N3CCN(CC(C)C)CC3)c(F)c2)n1C [Example 118, 2-(1,5-Dimethyl-3-phenyl-1H-pyrrol-2-yl)-N-[3-fluoro-4-(4-isobutyl-piperazin-1-yl)-phenyl]-2-oxo-acetamide]",< 1,< 1,< 1,< 1,< 1,< 1,< 1,< 1,< 1,< 1,< 1,< 1,–
"COCCn1c(C)cc(-c2ccccc2)c1C(=O)C(=O)Nc1ccc(N2CCCCC2)c(F)c1 [Example 119, N-(3-Fluoro-4-piperdin-1-yl-phenyl)-2-[1-(2-methoxy-ethyl)-5-methyl-3-phenyl-1H-pyrrol-2-yl]-2-oxo-acetamide]",–,–,–,–,–,–,–,–,–,–,–,–,"MIC grade, A. fumigatus [1]: 3 (A grade of 3 represents an MIC of less than 1 mg/L); MIC grade, A. terreus (Aspergillus terreus AT4 [2]): 3 (A grade of 3 represents an MIC of less than 1 mg/L); MIC grade, A. fumigatus 210 [3]: 3 (A grade of 3 represents an MIC of less than 1 mg/L); MIC grade, A. flavus (Aspergillus flavus [4]): 2 (A grade of 2 represents an MIC of from 1 to 10 mg/L); MIC grade, A. niger (Aspergillus niger [5]): 3 (A grade of 3 represents an MIC of less than 1 mg/L); MIC grade, A. terreus 49 (Aspergillus terreus AT49 [6]): 3 (A grade of 3 represents an MIC of less than 1 mg/L); MIC grade, A. fumigatus [7]: 3 (A grade of 3 represents an MIC of less than 1 mg/L); MIC grade, A. terreus (Aspergillus terreus AT4 [8]): 3 (A grade of 3 represents an MIC of less than 1 mg/L); MIC grade, A. fumigatus 210 [9]: 3 (A grade of 3 represents an MIC of less than 1 mg/L); MIC grade, A. flavus (Aspergillus flavus [10]): 2 (A grade of 2 represents an MIC of from 1 to 10 mg/L); MIC grade, A. niger (Aspergillus niger [11]): 3 (A grade of 3 represents an MIC of less than 1 mg/L); MIC grade, A. terreus 49 (Aspergillus terreus AT49 [12]): 2 (A grade of 2 represents an MIC of from 1 to 10 mg/L)"
"Cc1cc(-c2ccccc2)c(C(=O)C(=O)Nc2ccc(N3CCN(c4ccc(CN5CCOCC5)cn4)CC3)cc2)n1C [Example 120, 2-(1,5-Dimethyl-3-phenyl-1H-pyrrol-2-yl)-N-{4-[4-(5-morpholin-4-ylmethyl-pyridin-2-yl)-piperazin-1-yl]-phenyl}-2-oxo-acetamide]",< 1,< 1,< 1,< 1,< 1,< 1,< 1,< 1,< 1,< 1,< 1,< 1,–
"CCCNC(=O)C(=O)c1cc(-c2ccccc2)cn1CCOC [Example 121, 2-[1-(2-Methoxy-ethyl)-4-phenyl-1H-pyrrol-2-yl]-2-oxo-N-propyl-acetamide]",> 10,1 to 10,1 to 10,> 10,> 10,1 to 10,> 10,> 10,> 10,> 10,> 10,> 10,–
"COC(=O)Cn1cc(-c2ccccc2)cc1C(=O)C(=O)Nc1ccc(N2CCN(c3cc(C)cc(C)n3)CC2)cc1 [Example 122, (2-{4-[4-(4,6-Dimethyl-pyridin-2-yl)-piperazin-1-yl]-phenylaminooxalyl}-4-phenyl-pyrrol-1-yl)-acetic acid methyl ester]",–,–,–,–,–,–,–,–,–,–,–,–,"MIC grade, A. fumigatus [1]: 3 (A grade of 3 represents an MIC of less than 1 mg/L); MIC grade, A. terreus (Aspergillus terreus AT4 [2]): 1 (a grade of 1 represents an MIC of greater than 10 mg/L); MIC grade, A. fumigatus 210 [3]: 2 (A grade of 2 represents an MIC of from 1 to 10 mg/L); MIC grade, A. flavus (Aspergillus flavus [4]): 1 (a grade of 1 represents an MIC of greater than 10 mg/L); MIC grade, A. niger (Aspergillus niger [5]): 2 (A grade of 2 represents an MIC of from 1 to 10 mg/L); MIC grade, A. terreus 49 (Aspergillus terreus AT49 [6]): 1 (a grade of 1 represents an MIC of greater than 10 mg/L); MIC grade, A. fumigatus [7]: 1 (a grade of 1 represents an MIC of greater than 10 mg/L); MIC grade, A. terreus (Aspergillus terreus AT4 [8]): 1 (a grade of 1 represents an MIC of greater than 10 mg/L); MIC grade, A. fumigatus 210 [9]: 1 (a grade of 1 represents an MIC of greater than 10 mg/L); MIC grade, A. flavus (Aspergillus flavus [10]): 1 (a grade of 1 represents an MIC of greater than 10 mg/L); MIC grade, A. niger (Aspergillus niger [11]): 2 (A grade of 2 represents an MIC of from 1 to 10 mg/L); MIC grade, A. terreus 49 (Aspergillus terreus AT49 [12]): 1 (a grade of 1 represents an MIC of greater than 10 mg/L)"
"COCCn1c(C)cc(-c2ccccc2)c1C(=O)C(=O)Nc1ccc(N2CCN(c3cc(C)cc(C)n3)CC2)cc1F [Example 123, N-{4-[4-(4,6-Dimethyl-pyridin-2-yl)-piperazin-1-yl]-2-fluoro-phenyl}-2-[1-(2-methoxy-ethyl)-5-methyl-3-phenyl-1H-pyrrol-2-yl)-2-oxo-acetamide]",< 1,< 1,< 1,< 1,< 1,< 1,< 1,< 1,< 1,< 1,< 1,1 to 10,–
"CCCc1cc(-c2ccccc2)c(C(=O)C(=O)Nc2ccc(N3CCN(c4cc(C)cc(C)n4)CC3)cc2)n1C [Example 124, N-{4-[4-(4,6-Dimethyl-pyridin-2-yl)-piperizin-1-yl]-phenyl}-2-[1-methyl-3-phenyl-5-propyl-1H-pyrrol-2-yl)-2-oxo-acetamide]",–,–,–,–,–,–,–,–,–,–,–,–,"MIC grade, A. fumigatus [1]: 3 (A grade of 3 represents an MIC of less than 1 mg/L); MIC grade, A. terreus (Aspergillus terreus AT4 [2]): 3 (A grade of 3 represents an MIC of less than 1 mg/L); MIC grade, A. fumigatus 210 [3]: 3 (A grade of 3 represents an MIC of less than 1 mg/L); MIC grade, A. flavus (Aspergillus flavus [4]): 3 (A grade of 3 represents an MIC of less than 1 mg/L); MIC grade, A. niger (Aspergillus niger [5]): 3 (A grade of 3 represents an MIC of less than 1 mg/L); MIC grade, A. terreus 49 (Aspergillus terreus AT49 [6]): 3 (A grade of 3 represents an MIC of less than 1 mg/L); MIC grade, A. fumigatus [7]: 2 (A grade of 2 represents an MIC of from 1 to 10 mg/L); MIC grade, A. terreus (Aspergillus terreus AT4 [8]): 2 (A grade of 2 represents an MIC of from 1 to 10 mg/L); MIC grade, A. fumigatus 210 [9]: 2 (A grade of 2 represents an MIC of from 1 to 10 mg/L); MIC grade, A. flavus (Aspergillus flavus [10]): 2 (A grade of 2 represents an MIC of from 1 to 10 mg/L); MIC grade, A. niger (Aspergillus niger [11]): 1 (a grade of 1 represents an MIC of greater than 10 mg/L); MIC grade, A. terreus 49 (Aspergillus terreus AT49 [12]): 2 (A grade of 2 represents an MIC of from 1 to 10 mg/L)"
"CCc1cc(-c2ccccc2)c(C(=O)C(=O)Nc2ccc(N3CCN(c4cc(C)cc(C)n4)CC3)cc2)n1COC [Example 125, N-{4-[4-(4,6-Dimethyl-pyridin-2-yl)-piperazin-1-yl]-phenyl}-2-(5-ethyl-1-methoxymethyl-3-phenyl-1H-pyrrol-2-yl)-2-oxo-acetamide]",< 1,< 1,< 1,< 1,< 1,< 1,1 to 10,1 to 10,1 to 10,1 to 10,1 to 10,1 to 10,–
"COCCn1c(C)cc(-c2ccccc2)c1C(=O)C(=O)Nc1ccc(N2CCOCC2)c(F)c1 [Example 126, N-(3-Fluoro-4-morpholin-4-yl-phenyl)-2-[1-(2-methoxy-ethyl)-5-methyl-3-phenyl-1H-pyrrol-2-yl]-2-oxo-acetamide]",< 1,< 1,< 1,1 to 10,1 to 10,< 1,1 to 10,1 to 10,1 to 10,> 10,> 10,1 to 10,–
"Cc1cc(-c2ccccc2)c(C(=O)C(=O)Nc2cccc3c(F)cccc23)n1C [Example 127, 2-(1,5-Dimethyl-3-phenyl-1H-pyrrol-2-yl)-N-(5-fluoro-naphthalen-1-yl)-2-oxo-acetamide]",> 10,< 1,1 to 10,< 1,< 1,< 1,> 10,< 1,> 10,< 1,< 1,< 1,–
"CCn1ccc2c(F)c(NC(=O)C(=O)c3c(-c4ccccc4)cc(C)n3C)ccc21 [Example 128, 2-(1,5-Dimethyl-3-phenyl-1H-pyrrol-2-yl)-N-(1-ethyl-4-fluoro-1H-indol-5-yl)-2-oxo-acetamide]",< 1,< 1,< 1,< 1,< 1,< 1,< 1,< 1,< 1,< 1,< 1,< 1,–
